The results in this text go back to a melting point compilation (Tetko et al.).

Consider `O=C(O)CN1CCN(CC(=O)O)CCN(CC(=O)Nc2c(I)cc(I)c(C(=O)O)c2I)CCN(CC(=O)O)CC1`, for which the melting point – broadly, the temperature, or range, at which the solid turns liquid – was 235 °C.

The compound `CCCCCCCCCS(=O)(=O)c1cc2c3cc(S(=O)(=O)CCCCCCCCC)c(S(=O)(=O)CCCCCCCCC)cc3c3cc(S(=O)(=O)CCCCCCCCC)c(S(=O)(=O)CCCCCCCCC)cc3c2cc1S(=O)(=O)CCCCCCCCC` had a melting point of 202 °C.

`CCCCCc1nc(C)c(C(=O)OCC)n1Cc1ccc2oc(-c3ccccc3-c3nnn(C(c4ccccc4)(c4ccccc4)c4ccccc4)n3)c(Br)c2c1` displayed a melting point of 89 to 90 °C.

Compound `CSc1ccccc1C(=O)Nc1ccc(C(=O)N2Cc3cccn3Cc3ccccc32)cc1` showed a melting point of 171 to 174 °C.

Consider `CCCCCCCCCCCCC=CCCC(Cl)CC1CC(=O)N(N(c2ccccc2)c2[nH]n(-c3c(Cl)cc(Cl)cc3Cl)c(=O)c2OC(=O)c2cc([N+](=O)[O-])ccc2N)C1=O` (configuration not stated), for which the melting point lay within 118 to 121 °C.

For the compound `ON=C(Cl)c1ccc(Cl)cc1`, the melting point is 87.5 °C.

For `CCOC(=O)[C@@H](CCC(=O)N1c2ccccc2C[C@H]1C(=O)OCC)NC(=O)[C@H](CCCCNSc1ncccc1[N+](=O)[O-])NC(=O)OCc1ccc2c(c1)OCO2`, the melting point is 130 to 135 °C.

Regarding `CCCCCCCCCCCCCCCCCCOC(=O)CSCc1cc(CSCC(=O)OCCCCCCCCCCCCCCCCCC)c(O)c(CSCC(=O)OCCCCCCCCCCCCCCCCCC)c1`, the melting point lay within 70 to 71 °C.

`CSc1ccc2c3c(cccc13)C(=O)N(O)C2=O` displayed a melting point of 301 to 306 °C.

Turning to `CCCCCCCCCCCCCCCC(=O)C(O)C(O)(C(=O)c1cccc(NC(=O)C(CS)Cc2ccccc2)c1)C(O)C(=O)CCCCCCCCCCCCCCC` (configuration not stated), the melting point lay within 66 to 68 °C.

In turn, `c1ccc(C2CN3CCSC3=N2)cc1` (configuration not stated) returned a melting point of 60 to 61.5 °C.

The compound `CC1=C(CC(=O)O)c2cc(C#N)ccc2C1=Cc1ccc(S(C)=O)cc1` (configuration not stated) had a melting point of 160 to 165 °C.

`CCc1nc(OC)c(NC(=O)N2CCN(c3cc(OC)c(OC)c(OC)c3)CC2)cc1C(=O)NC(C)C(=O)Nc1cc(CO)cc(Nc2c3ccccc3nc3ccccc23)c1` (configuration not stated) displayed a melting point of 205 to 207 °C.

As for `CCCCCCCCCCCCCCCC(=O)OC(CCCCCCCCCCCCCC)C(=O)N[C@H](C(=O)N[C@@H](CCC(=O)OCc1ccccc1)C(=O)OCc1ccccc1)C(C)C` (some centres not stated), the melting point was 65 °C.

Consider `CCCCCCCCN=C(O)c1c(Sc2ccc([N+](=O)[O-])cc2)c(Sc2ccc([N+](=O)[O-])cc2)c(Sc2ccc([N+](=O)[O-])cc2)c(Sc2ccc([N+](=O)[O-])cc2)c1C(=O)O`, for which the melting point was 202 to 204 °C.

Regarding `O=C(Oc1cccc2c(OC(=O)c3ccc(OCc4ccccc4)cc3)c3c(OC(=O)c4ccc(OCc5ccccc5)cc4)cccc3cc12)c1ccc(OCc2ccccc2)cc1`, the melting point lay within 240 to 242 °C.

Compound `COc1cc(OC)c(/C=C/C(c2ccc(OC)c(NC(=N)N)c2)S(=O)(=O)C(/C=C/c2c(OC)cc(OC)cc2OC)c2ccc(OC)c(NC(=N)N)c2)c(OC)c1` (configuration not stated) showed a melting point of 174 to 176 °C.

Regarding `CCCCCCCCCCCCCCCCNc1ccc(C(=O)OCC(COC(=O)c2ccc(NCCCCCCCCCCCCCCCC)cc2)OC(=O)c2ccc(NCCCCCCCCCCCCCCCC)cc2)cc1`, the melting point lay in the range of 117 to 118 °C.

Take `Cc1ccc(S(=O)(=O)NNOC(C)C)cc1`: the melting point is 112 to 113 °C.

On to `COc1cc(OC)c(/C=C/C(c2ccc(OC)c(NC(=O)C(F)(F)C(F)(F)F)c2)S(=O)(=O)C(/C=C/c2c(OC)cc(OC)cc2OC)c2ccc(OC)c(NC(=O)C(F)(F)C(F)(F)F)c2)c(OC)c1` (configuration not stated), for which the melting point fell in the range of 179 to 180 °C.

In the case of `CCOCCCO`, the melting point turned out to be 5.2 °C.

Take `CN1CCC(c2nn(-c3ccncc3)c3ccccc23)CC1`: the melting point lay in the range of 205 to 207 °C.

For `CCC(C)C1NC(=O)C(NC(=O)C(CC(C)C)N(C)C(C)=O)C(C)OC(=O)C(Cc2ccc(OC)cc2)N(C)C(=O)C2CCCN2C(=O)C(CC(C)C)NC(=O)C(C)C(=O)C(C(C)C)OC(=O)CC1OC(C)=O` (configuration not stated), the melting point lay within 130 to 133 °C.

In turn, `CCCCCCCCCCCCCCCCCCOc1ccc(OCCCOc2ccc(OCc3ccccc3)cc2)c(C(=O)N(CC(=O)OCC)CC(=O)OCC)c1` displayed a melting point of 54 to 55 °C.

Compound `C1CCC2NCCC2C1` (configuration not stated) yielded a melting point of 85 °C.

`COc1ccc(OC)c(CCNC(=O)N[C@H](Cc2cc(Br)c(O)c(Br)c2)C(=O)N[C@@H](CCCCN)C(=O)N2CCN(c3ccncc3)CC2)c1` returned a melting point of 135 to 137 °C.

Compound `CC(C)CCCC(C)C1CCC2C3CC=C4CC(NCCCNC(=O)CCNC(=O)CCNC(=O)CCCCCNc5ccc([N+](=O)[O-])cc5[N+](=O)[O-])CCC4(C)C3CCC12C` (configuration not stated) returned a melting point of 118 to 119 °C.

`O=C(O)CN(CC(COCc1ccccc1)N(CCCOCc1ccccc1)CC(=O)O)CC(COCc1ccccc1)N(CCCOCc1ccccc1)CC(=O)O` (configuration not stated) had a melting point of 150 °C.

Compound `O=C(Nc1c(Cl)cncc1Cl)C(=O)c1cn(Cc2c(F)cccc2[N+](=O)[O-])c2c(O)cccc12` registered a melting point of 308 to 310 °C.

As to `Cc1nn(-c2ccc(C(F)(F)F)cn2)cc1CCCOc1cccc(OC(C)(C)C(=O)O)c1`, the melting point was in the range of 107 to 108 °C.

`CCC1(CC)c2cc(-c3nc4ccccc4s3)ccc2-c2ccc(C(CCCCCN)c3ccc4c(c3)C(CC)(CC)c3cc(-c5nc6ccccc6s5)ccc3-4)cc21` returned a melting point of 108 to 109 °C.

In turn, `CC(=O)Nc1c(I)c(C(=O)N(C)CC(O)C(O)C(O)C(O)CO)c(I)c(N(C)C(C)=O)c1I` (configuration not stated) yielded a melting point of 110 to 130 °C.

Consider `CN=S(=O)(Cc1ccc(C(F)(F)F)nc1)c1nc(-c2ccc(OC)cc2)cs1` (configuration not stated), for which the melting point lay in the range of 158 to 161 °C.

`CC(C)CCCC(C)C1CCC2C3CC=C4CC(N(CCCNC(=O)CCNC(=O)CCCCCNc5ccc([N+](=O)[O-])cc5[N+](=O)[O-])S(=O)(=O)c5ccccc5[N+](=O)[O-])CCC4(C)C3CCC12C` (configuration not stated) displayed a melting point of 86 to 87 °C.

For the compound `CC(C)(C)c1cc(-c2cc(C(C)(C)C)cc(C(C)(C)C)c2Op2oc3c(C(C)(C)C)cc(C(C)(C)C)cc3c3cc(C(C)(C)C)cc(C(C)(C)C)c3o2)c(O)c(C(C)(C)C)c1`, the melting point lay within 245 to 250 °C.

As for `CCCCCCCCCCOc1cc2c3c(c4cc(OCCCCCCCCCC)c(OCCCCCCCCCC)cc4c2cc1OCCCCCCCCCC)C(=O)C=CC3=O`, the melting point lay within 86 to 87 °C.

`CCCCC1(CC)CS(=O)(=O)c2ccc(N(C)C)cc2C(c2cccc(NC(=O)COCCOCCOCC(=O)NCc3ccc(C4C(CCC(O)c5ccccc5)C(=O)N4c4ccc(F)cc4)cc3)c2)C1O` (configuration not stated) returned a melting point of 120 °C.

As for `CC(C)(C)c1cc(C(C)(C)C)c(OP2OP(Oc3c(C(C)(C)C)cc(C(C)(C)C)cc3C(C)(C)C)OP(Oc3c(C(C)(C)C)cc(C(C)(C)C)cc3C(C)(C)C)O2)c(C(C)(C)C)c1` (configuration not stated), the melting point fell in the range of 226 to 244 °C.

Take `Cc1ccccc1-n1c(-c2cc(-c3ccncc3)c(N3CCOCC3)s2)nc2ccccc2c1=O`: the melting point fell in the range of 208 to 210 °C.

Compound `[C-]#[N+]Cc1nc(-c2ccccc2)c(-c2ccccc2)o1` had a melting point of 95 to 96 °C.

Compound `COc1cc(OC)c(/C=C/C(c2ccc(OC)c(NC(=O)C(C)(C)O)c2)S(=O)(=O)C(/C=C/c2c(OC)cc(OC)cc2OC)c2ccc(OC)c(NC(=O)C(C)(C)O)c2)c(OC)c1` (configuration not stated) displayed a melting point of 198 to 199 °C.

`O=C(O)Cc1cccc(-c2cc(CCCCc3ccc(OC4OC(CO)C(O)C(O)C4O)c(-c4cccc(CC(=O)O)c4)c3)ccc2OC2OC(CO)C(O)C(O)C2O)c1` (configuration not stated) gave a melting point of 195 to 197 °C.

In turn, `CCn1cc(C(=O)Nc2cc(Oc3ccc4nc(NC(=O)C5CC5)cn4n3)ccc2Cl)c(C)n1` yielded a melting point of 200 °C.

`C=CCOC(=O)NC(=O)C(c1ccccc1)c1ccccc1`: the melting point lay in the range of 118 to 120 °C.

As to `CCCCCCCCCCCCCC(=O)Nc1ccc(Cl)c(NC2=NN(c3c(Cl)cc(Cl)cc3Cl)C(=O)C2Sc2nnnn2-c2cccc(C(=O)O)c2)c1` (configuration not stated), the melting point lay within 155 to 165 °C.

Compound `CCCCCCCCCCOc1cc(OCCCCCCCCCC)cc(N(CC(=O)OCOC(C)=O)CC(=O)OCOC(C)=O)c1` returned a melting point of 37 to 39 °C.

`C=CCOCC(=O)Nc1c(I)c(C(=O)NC(COC(C)=O)COC(C)=O)c(I)c(C(=O)NC(COC(C)=O)COC(C)=O)c1I` had a melting point of 214 to 216 °C.

Compound `CCCCCCCCOc1ncc(-c2ccc(C(OC(c3ccc(-c4cnc(OCCCCCCCC)nc4)cc3)C3COC4(CCCCC4)O3)C3COC4(CCCCC4)O3)cc2)cn1` (configuration not stated) returned a melting point of 93.4 °C.

`CCCCCCCCCCCCS(=O)(=O)c1cc2c(cc1S(=O)(=O)CCCCCCCCCCCC)C(=O)c1c(c(O)c3cc(S(=O)(=O)CCCCCCCCCCCC)c(S(=O)(=O)CCCCCCCCCCCC)cc3c1O)C2=O` displayed a melting point of 180 to 183 °C.

`O=[N+]([O-])c1ccccc1N1CCc2cc(Br)ccc21` had a melting point of 112 to 114 °C.

For `CCN(CC)CCN=S(=O)(c1ccccc1)c1ccco1` (configuration not stated), the melting point was 133 °C.

For the compound `[C-]#[N+]C(c1cc(Br)c(OC)c(OC)c1)S(=O)(=O)c1ccc(C)cc1` (configuration not stated), the melting point is 109 to 110 °C.

As for `COc1cc(C(=O)Oc2ccc3c(OC(=O)c4ccc(OCc5ccccc5)c(OC)c4)c4cc(OC(=O)c5ccc(OCc6ccccc6)c(OC)c5)ccc4cc3c2)ccc1OCc1ccccc1`, the melting point is 186 to 189 °C.

For `CCC1(CC)c2cc(-c3nc4cc5sc(-c6ccc7c(c6)C(CC)(CC)c6cc(N(c8ccccc8)c8ccccc8)ccc6-7)nc5cc4s3)ccc2-c2ccc(N(c3ccccc3)c3ccccc3)cc21`, the melting point lay in the range of 180 to 183 °C.

In the case of `O=C(Oc1ccc2c(OC(=O)c3ccc(OCc4ccccc4)cc3)c3cc(OC(=O)c4ccc(OCc5ccccc5)cc4)ccc3cc2c1)c1ccc(OCc2ccccc2)cc1`, the melting point is 219 to 221 °C.

As for `CC(=O)OCC(COC(C)=O)NC(=O)c1c(I)c(NC(=O)OCC2CO2)c(I)c(C(=O)NC(COC(C)=O)COC(C)=O)c1I` (configuration not stated), the melting point was in the range of 228 to 230 °C.

With `COc1ccc([C@@H]2Sc3ccccc3N(CCN(C)C)C(=O)[C@@H]2OC(=O)CCC(=O)O[C@H]2C(=O)N(CCN(C)C)c3ccccc3S[C@H]2c2ccc(OC)cc2)cc1` (relative stereo), the melting point lay in the range of 112 to 115 °C.
